Data from paper PMC7070685, “Efficient Biocatalytic Synthesis of Dihalogenated Purine Nucleoside Analogues Applying Thermodynamic Calculations” (Molecules, 2020).

What was measured:
HL-60 cells = assay: XTT cell proliferation assay, HL-60; type: cell-based; conditions: Homo sapiens; leukemia cell line HL-60, XTT assay after 24 h; read-out: IC50, inhibition of growth of HL-60 cells
Method: (§1) HEK293 cells were cultured in […] Dulbecco’s modified Eagle’s medium (Biowest) containing 10% fetal bovine serum, 2 mM glutamine, non-essential amino acids, 4.5 mg mL^−1 glucose, and the antibiotics penicillin and streptomycin. HL-60 cells were cultured in RPMI 1640 w/o L-Glutamine supplemented with 10% fetal bovine serum, 2 mM glutamine, and the antibiotics penicillin and streptomycin. Cells were grown at 37 °C in a humidified atmosphere with 5% CO2.
(§2) Cytotoxicity was measured by the XTT assay at 450 nm as described by the manufacturer (Roche Diagnostics, Basel, Switzerland). Phosphate-buffered saline was used as negative control. For HL-60 and HEK293 cells, 1.2 × 10^5 cells in growth media were transferred to each well of a 96-well flat-bottom plate. Subsequently, modified nucleosides were added in varying concentrations. XTT assay was performed after 24 h for HL-60 and HEK293 cells, as described previously. At least three replicates for each nucleoside concentration were performed. All experiments were conducted for a minimum of three independent experiments.

HEK293 cells = assay: XTT cell proliferation assay, control cell line HEK293; type: cell-based; conditions: control cell line HEK293, XTT assay after 24 h
Method: as §1, §2

IC50 (HL-60 cells): 0.22 µM
Compound: Nc1nc(Cl)nc2c1ncn2[C@H]1C[C@H](O)[C@@H](CO)O1 [cladribine]
inhibition of growth of the control cell line HEK293 (HEK293 cells): No unspecific growth inhibition
